Source: US4299839A, “Novel pesticides and pesticidal compositions cyclopropanecarboxylates and pesticidal method” (priority 1979, dated 1981)

Assays:
[1] = test system: housefly (Musca domestica); experiment: Mortality test against houseflies by topical application; assay type: in vivo; settings: 24 h
Description: Each test compound was accurately weighed and a 1% solution and an 0.1% solution of the sample in acetone were prepared. A 1 μl portion of either of the above solutions was micropipetted onto the thoracic dorsal part of each female adult housefly (Musca domestica) under ether anaesthesia and the fly was released in a high-walled dish together with feed. The dish was covered with a metal-wire net and maintained at 25° C. After 24 hours, the test flies were inspected for deaths and the mortality (%) was calculated. Thirty test flies were used per concentration group.

[2] = Fish Toxicity Test; assay type: in vivo; settings: guppy, water; rank; 50% of female guppies killed during 48 hours, 20° C.; [Mixture] = cis/trans 50/50; read-out: TLm (medium tolerance limit)
Description: The mixture was stirred well to prepare a test water. Ten female guppies from 3 to 4 months of age were released into the test water and maintained at 20° C. The concentration of the test compound at which 50% of the guppies were killed during the ensuring 48 hours was determined. [This concentration is referred to as TLm (medium tolerance limit, ppm)].
A rank corresponds to TLm of not less than 10 ppm.
B rank corresponds to TLm of 0.5-10 ppm.
C rank corresponds to TLm of not more than 0.5 ppm.

Row | Compound | mortality at 1 µg/fly [1] [%] | mortality at 10 µg/fly [1] [%] | LC50 at 48 h [2] [µg/mL]
1 | CC1(C)[C@H](C(=O)OCc2cccc(Oc3ccccc3)c2)[C@@H]1CC(Cl)(Cl)Cl (relative stereo) [Compound (1) [Cis-isomer], 3-Phenoxybenzyl 2,2-dimethyl-3-(2,2,2-trichloroethyl)cyclopropanecarboxylate] | 96.7 | 100 | ≥ 10
2 | CC(Cl)(Cl)CC1C(C(=O)OC(C#N)c2cccc(Oc3ccccc3)c2)C1(C)C (stereo not drawn) [Compound (9) [Mixture], 3-Phenoxy-α-cyanobenzyl 2,2-dimethyl-3-(2,2-dichloropropyl)cyclopropanecarboxylate] | 100 | 100 | –
3 | CC(C)=CC1C(C(=O)OCc2coc(Cc3ccccc3)c2)C1(C)C (stereo not drawn) [Resmethrin, 5-benzyl-3-furylmethyl chrysanthemate, reference compound] | – | – | ≤ 0.5
4 | CC1(C)C(CC(Cl)(Cl)Cl)C1C(=O)OCc1coc(Cc2ccccc2)c1 (stereo not drawn) [Compound (28) [Mixture], 5-Benzyl-3-furylmethyl 2,2-dimethyl-3-(2,2,2-trichloroethyl)cyclopropanecarboxylate] | 86.7 | 100 | ≥ 10
5 | CC1(C)C(C=C(Cl)Cl)C1C(=O)OCc1cccc(Oc2ccccc2)c1 (racemic) [Permethrin, 3-phenoxybenzyl (+)-cis,trans-2,2-dimethyl-3-(2,2-dichlorovinyl)-cyclopropanecarboxylate, reference compound] | – | – | ≤ 0.5
6 | CC(C)C(C(=O)OC(C#N)c1cccc(Oc2ccccc2)c1)c1ccc(Cl)cc1 (stereo not drawn) [Fenvalerate, 3-phenoxy-α-cyanobenzyl α-(4-chlorophenyl)isovalerate, reference compound] | – | – | ≤ 0.5
7 | C#CC(OC(=O)C1C(CC(Cl)(Cl)Cl)C1(C)C)c1cccc(Oc2ccc(Cl)cc2)c1 (stereo not drawn) [Compound (21) [Mixture], 3-(4-Chlorophenoxy)-α-ethynylbenzyl 2,2-dimethyl-3-(2,2,2-trichloroethyl)cyclopropanecarboxylate] | 60 | 93.3 | ≥ 10
8 | C#CC(OC(=O)C1C(CC(Br)(Br)Br)C1(C)C)c1cccc(Oc2ccccc2)c1 (stereo not drawn) [Compound (12) [Mixture], 3-Phenoxy-α-ethynylbenzyl 2,2-dimethyl-3-(2,2,2-tribromoethyl)cyclopropanecarboxylate] | – | – | ≥ 10
9 | CC1(C)C(CC(Cl)(Cl)Cl)C1C(=O)OC(C#N)c1cccc(Oc2ccc(Cl)cc2)c1 (stereo not drawn) [Compound (15) [Mixture], 3-(4-Chlorophenoxy)-α-cyanobenzyl 2,2-dimethyl-3-(2,2,2-trichloroethyl)cyclopropanecarboxylate] | 86.7 | 100 | ≥ 10
10 | CC1(C)C(CC(Cl)(Cl)Cl)C1C(=O)OCN1C(=O)C2=C(CCCC2)C1=O (stereo not drawn) [Compound (37) [Mixture], 3,4,5,6-Tetrahydrophthalimidomethyl 2,2-dimethyl-3-(2,2,2-trichloroethyl)cyclopropane carboxylate] | 40 | 56.7 | 0.5 to 10
11 | CC1(C)C(C=C(Cl)Cl)C1C(=O)OC(C#N)c1cccc(Oc2ccccc2)c1 (stereo not drawn) [Cypermethrin, 3-phenoxy-α-cyanobenzyl 2,2-dimethyl-3-(2,2-dichlorovinyl)cyclopropanecarboxylate, reference compound] | – | – | ≤ 0.5
12 | CC(Cl)(Cl)CC1C(C(=O)OCc2cccc(Oc3ccccc3)c2)C1(C)C (stereo not drawn) [Compound (5) [Mixture], 3-Phenoxybenzyl 2,2-dimethyl-3-(2,2-dichloropropyl)cyclopropanecarboxylate] | 100 | 100 | –
